# According to patent US7622269B2, “Methods of screening tyramine- and octopamine-expressing cells for compounds and compositions having potential insect control activity” (Tyratech, Inc., priority 2004, dated 2009):
# Several values for one entry are separate records, joined by “and”; a condition that tells them apart may be missing. Identical values can stand only once.
# Key:
# [1] = test system: Drosophila melanogaster wild type strain; test: Topical toxicity bioassay, wild type fruit fly; assay type: in vivo; conditions: for Wild/type LD50 values / LD50, D. melanogaster: topical application; for Wild/type LD50 values: mortality 24 hours after treatment; for % Mortality at LD50 of wild/type Drosophila melanogaster strain, Wild/type: topical, 24 hour; for LD50, D. melanogaster: 24 hours
# OAMB [2] = target: T1, OAMB (Drosophila melanogaster, UniProt Q7JQF1, L268I/L487I/L521I/T180I); test: Saturation binding of 3H-yohimbine to membranes of COS-7 cells expressing OAMB; design: Oligonucleotides designed to amplify the open reading frame of Drosophila melanogaster OAMB; expressed in transfected cells
# T1 sequence (Q7JQF1 other isoform, or with tags, fused parts or gaps T180I/L268I/L487I/L524I): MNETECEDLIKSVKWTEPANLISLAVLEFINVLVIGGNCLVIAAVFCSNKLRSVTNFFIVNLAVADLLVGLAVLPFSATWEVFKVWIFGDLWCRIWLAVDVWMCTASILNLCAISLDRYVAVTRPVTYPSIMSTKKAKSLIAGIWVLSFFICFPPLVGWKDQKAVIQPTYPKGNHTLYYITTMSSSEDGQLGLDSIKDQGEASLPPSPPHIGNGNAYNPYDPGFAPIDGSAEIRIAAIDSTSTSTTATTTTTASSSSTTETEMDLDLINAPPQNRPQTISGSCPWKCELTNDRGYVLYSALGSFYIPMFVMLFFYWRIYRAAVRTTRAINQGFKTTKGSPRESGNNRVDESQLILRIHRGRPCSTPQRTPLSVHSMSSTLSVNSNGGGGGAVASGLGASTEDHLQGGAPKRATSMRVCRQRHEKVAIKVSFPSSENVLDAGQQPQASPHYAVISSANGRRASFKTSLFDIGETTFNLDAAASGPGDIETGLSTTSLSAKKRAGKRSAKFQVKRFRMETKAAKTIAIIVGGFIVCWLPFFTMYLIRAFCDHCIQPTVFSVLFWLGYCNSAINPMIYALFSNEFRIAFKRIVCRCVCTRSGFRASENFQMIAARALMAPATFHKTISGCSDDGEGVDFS
# Pa oa1 [3] = target: T2, Pa oa1 (Periplaneta americana, UniProt Q7YWB7); test: Saturation binding of 3H-yohimbine to membranes of COS-7 cells expressing Pa oa1
# T2 sequence (Q7YWB7 entry or part of it): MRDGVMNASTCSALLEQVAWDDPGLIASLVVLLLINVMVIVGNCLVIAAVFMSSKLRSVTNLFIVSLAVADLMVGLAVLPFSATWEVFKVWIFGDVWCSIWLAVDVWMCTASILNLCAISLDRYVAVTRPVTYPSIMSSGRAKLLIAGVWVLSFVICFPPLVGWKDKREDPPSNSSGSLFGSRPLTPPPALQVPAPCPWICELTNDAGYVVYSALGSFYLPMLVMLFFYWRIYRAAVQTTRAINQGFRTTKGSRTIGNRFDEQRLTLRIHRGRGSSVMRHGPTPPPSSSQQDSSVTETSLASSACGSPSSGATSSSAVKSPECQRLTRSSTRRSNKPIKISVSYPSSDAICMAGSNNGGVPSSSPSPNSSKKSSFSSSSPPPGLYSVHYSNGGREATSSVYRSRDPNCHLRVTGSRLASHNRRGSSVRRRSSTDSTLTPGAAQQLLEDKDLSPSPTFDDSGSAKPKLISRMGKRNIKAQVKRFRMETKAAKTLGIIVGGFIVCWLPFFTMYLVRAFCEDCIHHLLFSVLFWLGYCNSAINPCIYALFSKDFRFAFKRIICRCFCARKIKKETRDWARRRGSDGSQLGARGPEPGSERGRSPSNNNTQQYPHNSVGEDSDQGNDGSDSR
# Pa oa1 [4] = target: T2, Pa oa1; test: Intracellular calcium (Fura-2) in HEK-293 cells expressing Pa oa1; assay type: cell-based
# Pa oa1 [5] = target: T2, Pa oa1; test: cAMP levels in HEK-293 cells expressing Pa oa1; assay type: cell-based
# Procedure: (§1) Twenty-four hours before cell treatment, about 300,000 HEK-293 cells are plated in about 1 ml media with about 0.8 mg G418/ml into multi-well dishes (e.g., 12-well, 4.5 cm^2). For cell treatment, the media is aspirated and about 1 ml PBS with about 300 μM IBMX and the test reagent is added. […] Cells are incubated with about 70% ethanol for about 1 h at about −20° C. The cellular debris is centrifuged and then the supernatant is removed and lyophilized to dryness. The amount of cAMP in the extract is determined by using a cAMP binding protein from the ^3H-cAMP Biotrak assay system (Amersham Biosciences) as per the manufacturer's instructions. To test the effects of calcium chelation on cAMP levels, the cells are incubated with about […] BAPTA/AM (Calbiochem Biochemicals, La Jolla, Calif.) for about 10 min before the addition of the test reagents.
# (§2) To determine cAMP levels in cells, about 24-hours before cell treatment, 300,000 HEK-293 cells are plated in 1 mL media with 0.8 mg G418/mL into multi-dishes (4.5 cm2). For cell treatment, the media is aspirated and 1 mL PBS with 300 μM IBMX and the test reagent is added. Cells are incubated at 37° C. for 20 min, and the PBS is then aspirated. Cells are incubated with 70% ethanol for 1 hour at −20° C. The cellular debris is centrifuged and then the supernatant is removed and lyophilized to dryness. The amount of cAMP in the extract is determined by using a cAMP binding protein from the ^3H-cAMP Biotrak assay system (Amersham Biosciences, Piscataway, N.J.) as per the manufacturer's instructions.
# Pa oa1 [6] = target: T2, Pa oa1; test: Competitive binding against 3H-yohimbine, Pa oa1 membranes; conditions: Ki, about 2 nM 3H-yohimbine
# control HEK-293 cells [7] = test: cAMP levels in control HEK-293 cells transfected with pCDNA3 without insert; assay type: cell-based, human; conditions: up to about 100 μM
# Procedure: as §1
# To determine which second messenger signaling pathways octopamine could affect through the Pa oa1 receptor, HEK-293 cells are stably transfected with pCDNA3-Pa oa1 or pCDNA3 without an insert as a control.
# control HEK-293 cells [8] = test: Intracellular calcium in control HEK-293 cells transfected with empty pCDNA3; assay type: cell-based, human; conditions: about 10 μM
# OAMB [9] = target: T1, OAMB; test: biochemical; assay type: binding; design: Oligonucleotides designed to amplify the open reading frame of Drosophila melanogaster OAMB; expressed in transfected cells
# American cockroach = test: Topical toxicity bioassay, American cockroach; assay type: in vivo, Periplaneta americana; conditions: for LD50, P. Americana: topical application, 24 hours
# Procedure: Acetonic solutions of plant essential oils are prepared and different concentrations of each, that give from 10%-100% mortality, are applied by topical application. Controls are treated with the same volume (0.5 μl/insect) of acetone. Replicates, with 5 insects per replicate, are used for each concentration. The mortality is calculated 24 hours after treatment. Data are subjected to probit analysis to determine LD50 value for each compound.
# OAMB [10] = target: T1, OAMB; test: Specific binding of 3H-yohimbine to OAMB membranes in presence of plant essential oil; design: Oligonucleotides designed to amplify the open reading frame of Drosophila melanogaster OAMB; expressed in transfected cells; conditions: 50 μM test chemical, 4 nM 3H-yohimbine
# Procedure: (§3) The binding activity of ^3H-yohimbine to membranes expressing Pa oa1 or OAMB is performed in the presence and absence of three structurally related plant essential oil monoterpenoids, which are selected based on their insecticidal activity, the absence or presence and location of the hydroxyl group and a spacing group within the molecule. Membrane protein (10 μg) expressing Pa oa1 is incubated with 4 nM ^3H-yohimbine in the presence and absence of 50 μM of the test chemical. The specific activity is calculated as the difference between counts in the presence and absence of test chemical. Specific binding is calculated by determining nonspecific binding with 50 μM tested plant essential oils and subtracting nonspecific binding from total binding.
# OAMB [11] = target: T1, OAMB; test: cAMP levels in HEK-293 cells expressing OAMB; assay type: cell-based; design: Oligonucleotides designed to amplify the open reading frame of Drosophila melanogaster OAMB; expressed in transfected cells; conditions: 50 μM, 300 μM IBMX
# Procedure: as §2
# Pa oa1 [12] = target: T2, Pa oa1; test: Specific binding of 3H-yohimbine to Pa oa1 membranes in presence of plant essential oil; conditions: for relative potency as inhibitor of 3H-yohimbine binding, Pa oa1 vs OAMB: 50 μM; for effect on specific binding of 3H-yohimbine: 50 μM test chemical, 4 nM 3H-yohimbine
# Procedure: as §3
# OAMB [13] = target: T1, OAMB; test: Intracellular calcium (Fura-2) in HEK-293 cells expressing OAMB; conditions: 25 μM
# Procedure: Cells are collected by scraping and are suspended at about 750,000 cells/ml in HBSS with about 5 μM Fura-2 AM (Sigma-Aldrich).
# [14] = 3H-yohimbine 0.5 to 50 nM, 50 μM phentolamine for nonspecific binding
structure (smiles),measurement,setting,value
CCC(=O)OCCc1ccccc1 [2-phenylethyl propionate],Wild/type LD50 values,[1],14.50 μg/fly
same,"% Mortality at LD50 of wild/type Drosophila melanogaster strain, Wild/type",[1],53.3%
COC(=O)[C@@H]1[C@H]2C[C@H]3c4[nH]c5ccccc5c4CCN3C[C@@H]2CC[C@@H]1O [3H-yohimbine],Kd,OAMB [2]; [14],~0.043 µM and 0.043 µM
same,Bmax,OAMB [2]; COS-7 membranes,about 8.04 pmol/mg
same,Bmax,OAMB [2]; Table B,8.04 pmole receptor/mg protein
same,Kd,Pa oa1 [3]; [14],~0.0284 µM and 0.0284 µM
same,Bmax for specific binding,Pa oa1 [3]; COS-7 membranes,about 11.8 pmol/mg protein
same,affinity of Pa oa1 to the radioligand higher than OAMB,Pa oa1 [3]; Pa oa1 vs OAMB,about 1.5 fold
same,Bmax,Pa oa1 [3]; Table B,11.80 pmole receptor/mg protein
CC(=O)OCOC(=O)CN(CC(=O)OCOC(C)=O)c1ccccc1OCCOc1ccccc1N(CC(=O)OCOC(C)=O)CC(=O)OCOC(C)=O [BAPTA/AM],effect on increase in free intracellular calcium by about 1 μM octopamine,Pa oa1 [4]; about 20 μM BAPTA/AM,inhibit the increase in free intracellular calcium
same,cAMP levels in absence vs presence of BAPTA/AM,"Pa oa1 [5]; about 20 μM BAPTA/AM, basal, about 100 nM or about 1 μM octopamine",not found to be statistically different
CN(C)CCCN1c2ccccc2Sc2ccc(Cl)cc21 [Chlorpromazine],Ki,Pa oa1 [6],0.012 ± 0.003 µM
NCCc1ccc(O)c(O)c1 [Dopamine],Ki,Pa oa1 [6],56.6 ± 8 µM
CCN(CC)CCNC(=O)c1cc(Cl)c(N)cc1OC [Metoclopramine],Ki,Pa oa1 [6],4.76 ± 1.32 µM
Cc1ccc(N(CC2=NCCN2)c2cccc(O)c2)cc1 [Phentolamine],Ki,Pa oa1 [6],0.023 ± 0.009 µM
NCCc1c[nH]c2ccc(O)cc12 [Serotonin],Ki,Pa oa1 [6],77.4 ± 11.6 µM
"NCCc1ccc(O)cc1 [Tyramine, tyramine]",Ki,Pa oa1 [6],~31 µM and 31 µM
same,concentration that increases intracellular calcium,Pa oa1 [4],≥ 1 µM
same,effect on intracellular calcium,Pa oa1 [4]; about 100 nM,does not modulate intracellular calcium levels
same,increase in tyramine concentration compared to about 10 nM octopamine required for similar response,Pa oa1 [4]; calcium and cAMP assays,about 100 fold
same,effect on cAMP levels,control HEK-293 cells [7],neither DL-octopamine nor tyramine at concentrations up to about 100 μM has significant effects on cAMP levels
same,EC50,"Pa oa1 [5]; 300 μM IBMX, read-out: EC50 for increase in cAMP",~97.7 µM
same,fold induction at 100 µM,"Pa oa1 [5]; HEK293, 20 min, about 100 μM amine, read-out: increase in cAMP",~215
same,cAMP concentration,"Pa oa1 [5]; about 10 nM amine, basal about 0.48 pmol cAMP",about 0.50 pmol cAMP
same,cAMP,Pa oa1 [5]; about 1 μM amine,about 1.2 pmol
same,effect on intracellular calcium levels,control HEK-293 cells [8],Neither about 10 μM octopamine nor about 10 μM tyramine modulates intracellular calcium levels
same,Ki,OAMB [9],~33.8 µM
"OCC=Cc1ccccc1 [cinnamic alcohol, 3-phenyl-2-propen-1-ol]","LD50, P. Americana",American cockroach,98 μg/insect
same,effect on specific binding of 3H-yohimbine,OAMB [10],decrease the binding of ^3H-yohimbine
same,effect on basal cAMP level,OAMB [11],slight increase in cAMP level
same,"relative potency as inhibitor of 3H-yohimbine binding, Pa oa1 vs OAMB",Pa oa1 [12],more potent against OAMB than Pa oa1
same,effect on specific binding of 3H-yohimbine,Pa oa1 [12],decrease the binding of ^3H-yohimbine
same,changes in [Ca2+]i level,Pa oa1 [4]; 25 μM,increase [Ca^2+]i through Pa oa1 and OAMB
same,changes in [Ca2+]i level,OAMB [13],increase [Ca^2+]i through Pa oa1 and OAMB
same,rank of potency based on increased [Ca2+]i level,OAMB [13],the most potent agent tested in this example
same,speed of increase in [Ca2+]i,OAMB [13],slower than the other two chemicals
same,effect on basal cAMP level,"Pa oa1 [5]; 50 μM, 300 μM IBMX",slight increase in cAMP level
same,"LD50, D. melanogaster",[1],1.65 μg/insect
same,Wild/type LD50 values,[1],1.65 μg/fly
same,"% Mortality at LD50 of wild/type Drosophila melanogaster strain, Wild/type",[1],30.0%
"C=CCc1ccc(O)c(OC)c1 [eugenol, 2-methoxy-4-(2-propenyl)phenol]",more toxic against American cockroach than cinnamic alcohol,American cockroach; in vivo,about 2 fold
same,more toxic against American cockroach than trans-anethole,American cockroach; in vivo,about 27 fold
same,"LD50, P. Americana",American cockroach,47 μg/insect
same,effect on specific binding of 3H-yohimbine,OAMB [10],decrease the binding of ^3H-yohimbine
same,effect on basal cAMP level,OAMB [11],slightly decreased cAMP level
same,"relative potency as inhibitor of 3H-yohimbine binding, Pa oa1 vs OAMB",Pa oa1 [12],more potent inhibitors against Pa oa1 than OAMB
same,effect on specific binding of 3H-yohimbine,Pa oa1 [12],decrease the binding of ^3H-yohimbine
same,changes in [Ca2+]i level,Pa oa1 [4]; 25 μM,increase [Ca^2+]i through Pa oa1 and OAMB
same,rank of potency based on increased [Ca2+]i level,Pa oa1 [4]; 25 μM,the most potent agent tested in this example
same,changes in [Ca2+]i level,OAMB [13],increase [Ca^2+]i through Pa oa1 and OAMB
same,inhibition at 50 µM,"Pa oa1 [5]; HEK293, 20 min, 50 μM, 300 μM IBMX, basal cAMP, read-out: decrease in cAMP level",24%
same,more toxic against wild type flies than trans-anethole,[1]; in vivo,3 fold
same,"LD50, D. melanogaster",[1],1.90 μg/insect
same,Wild/type LD50 values,[1],1.90 μg/fly
same,"% Mortality at LD50 of wild/type Drosophila melanogaster strain, Wild/type",[1],53.3%
"CC(C)=CCCC(C)=CCO [geraniol, 3,7-dimethyl-2,6-octadien-1-ol]",Wild/type LD50 values,[1],10.50 μg/fly
same,"% Mortality at LD50 of wild/type Drosophila melanogaster strain, Wild/type",[1],60.0%
"COC(=O)c1ccccc1O [methyl salicylate, 2-hydroxybenzoic acid methyl ester]",Wild/type LD50 values,[1],7.50 μg/fly
same,"% Mortality at LD50 of wild/type Drosophila melanogaster strain, Wild/type",[1],40.0%
"Cc1ccc(C(C)C)cc1 [p-cymene, methyl(1-methylethyl)benzene]",Wild/type LD50 values,[1],25.00 μg/fly
same,"% Mortality at LD50 of wild/type Drosophila melanogaster strain, Wild/type",[1],40.0%
"CC=Cc1ccc(OC)cc1 [trans-anethole, 1-methoxy-4-(1-propenyl)benzene]",effect on specific binding of 3H-yohimbine,OAMB [10],does not have a significant effect on binding to OAMB
same,increase in cAMP level,OAMB [11]; basal cAMP,22%
same,effect on specific binding of 3H-yohimbine,Pa oa1 [12],decreases the ^3H-yohimbine binding activity to only Pa oa1
same,speed of increase in [Ca2+]i,Pa oa1 [4]; 25 μM,slower than eugenol and cinnamic alcohol
same,changes in [Ca2+]i level,OAMB [13],increases
